Tests used:
apyrase = test: In vitro apyrase assay (screen for apyrase inhibitors); assay type: biochemical; conditions: inhibitor conc at 1 mM, 1 hr at room temperature, absorbance @630 nm
Experimental: Method 1: In Vitro Apyrase Assay:
The apyrase inhibitory activity was assessed using an in vitro assay. The method of Windsor, Bio Techniques 33:1024-1030 (November 2002) was used as follows:
96 well plates were used for the assay: (Greiner bio-one: REF-655901- 96 well, PS, F-bottom, Clear, Non-binding)
Reaction Buffer: 60 mM Hepes; 3 mM MgCl2, 3 mM CaCl2 and 3 mM ATP (pH 6.5)
Development Buffer A: 2% aqueous ammonium molybdate
Development Buffer B: 11% ascorbic acid in 37.5% TCA in water
Stop buffer C: 2% trisodium citrate in 2% acetic acid solution in water • Add 100 μl of reaction buffer to each well. • Add 10 μl of DMSO (control) or inhibitor/compound or compounds such as N1915 or orthovanadate to each well. (use inhibitor conc at 1 mM; orthovanadate at 2 mM and N1915 at 1 mM) • Add 10 μl of apyrase (concentration based on optimization—Dilute 1 U/μl enzyme to different concentrations such as 0.1 U, 0.05 U, 0.0025, 0.001 U, 0.0005 U—to find a good range) • Incubate plate at room temperature for 1 hr • Mix development buffer A and B in the ratio of 1:1.5 (just before use). • Add 50 ul of A:B mix in each well (incubate for 2 mins) • Add 50 ul of C in each well • Measure/Read Absorbance of plate @630 nm Compound 1 inhibited inhibited apyrase in this assay at about 60%. : […]

plant pathogenic fungi = test: Crop trials of fungicides with and without the enhancer compound (FIGS. 1-8); assay type: in vivo; conditions: soy, wheat and grape crops
Description: FIG. 1 illustrates Asian soybean rust severity in untreated crop (UTC) versus soy treated with azoxystrobin, chlorothalonil, tebuconazole or azoxystrobin and tebuconazole with and without the present enhancer compound (TX 15) at 1, 7, 9, 14 and 16 days after application (DAA).
FIG. 2 illustrates frogeye leaf spot intensity of infection in soy in untreated crop (UTC) versus soy treated with azoxystrobin, chlorothalonil, tebuconazole or azoxystrobin and tebuconazole with and without the present enhancer compound (TX15) at 4, 11 and 18 (two trials) days after application (DAA).
FIG. 3 illustrates yellow rust foliar infection percentage of wheat in untreated crop (UTC) versus wheat with preventive application of AMISTAR® (azoxystrobin), folpet, PROLINE® (prothioconazole), REVYSTAR® (fluxapyroxad and mefentrifluconazole), A20944 (prothioconazole and pydiflumetofen), ELATUS® ERA (prothioconazole and benzovindiflupyr), A21857 (ADEPIDYN®; pydiflumetofen), INATREQ® (fenpicoxamid) with and without the present enhancer compound (TX 15). […]
FIG. 7 illustrates the severity of downy mildew attack on grape crops assessed as to bunches and leaves in untreated crop (UTC) versus crop treated with cyazofamid or cyazofamid and the present enhancer compound (TX 15). […]

[1] = tested on: Zymoseptoria tritici (Septoria tritici); test: Greenhouse crop test of Compound 1 with metconazole on winter wheat; assay type: in vivo; conditions: winter wheat infected with Z. tritici, preventative spray 1 d before inoculation, FIG. 9
Experimental: A 2019 field isolate of Zymoseptoria tritici (Septoria tritici) was grown on potato dextrose agar (PDA), amended with penicillin and streptomycin, to eliminate possible bacterial contamination, for 6 d at 20° C.
Spore suspensions were made by flooding the plates with sterile distilled water and scraping gently. The spore suspensions were adjusted to 10^6 conidia mL^−1, by haemocytometer counts and appropriate dilution, before final re-suspension in potato dextrose broth, amended with 1.5 g L^−1 gelatin and 0.5 g L^−1 sodium oleate.
Septoria-susceptible winter wheat cv Trinity was planted in Levington M3 compost. Seeds (12-15 per pot) were planted per 9 cm pot and grown to growth stage 12. Plants were accommodated in a glasshouse with day heating to 20° C., venting at 22° C., and night heating to maintain 15° C. Plants were inoculated with Z. tritici by spraying spore suspensions at 10^6 spores ml^−1 to just before run-off. Three replicate pots were used per treatment. The plants were placed in sealed, transparent propagators for 72 hours, to maintain high relative humidity and to ensure free water remained on leaves. […] Preventative fungicide sprays were made 1 d before inoculation. Treatments were randomised within the glasshouse. All fungicides were applied at the equivalent rate of 200 L water per hectare, using a calibrated pressurised hand-held sprayer. […]

Which inhibited apyrase (apyrase) does the source give for `C/C(=N\NC(=O)c1cccc(C)c1)c1ccc2ccccc2c1` [Compound 1, (E)-3-methyl-N′-(1-(naphthalen-2-yl)ethylidene)benzohydrazide] here?
Its inhibited apyrase is “about 60%”.

What about the “fungal growth in combination with exemplary fungicides” value (plant pathogenic fungi) of the same molecule?
Its value is “dramatically reduces fungal growth”.

Which “effect of combining Compound 1 (TX15) with the fungicide” value [1] does the source give for `CC1(C)CCC(Cc2ccc(Cl)cc2)C1(O)Cn1cncn1` (stereo not drawn) [metconazole] here?
Its value is “synergistic effect”.

— patent US20240164380A1, “ANTIFUNGAL COMPOSITIONS AND METHODS FOR THEIR USE” (Texas Crop Science, Inc., priority 2022, published 2024)
